Data published in PubChem BioAssay AID328 (DTP/NCI, 2004).
Where “and” joins values, the source holds several entries; their conditions need not be identical. Equal values may be shown once. Toxic doses and inconclusive results are not listed.

System: BDF1 mice, P388 leukemia ip, median survival T/C
Experiment: NCI In Vivo Anticancer Drug Screen. Data for tumor model P388 Leukemia (intraperitoneal) in B6D2F1 (BDF1) mice
Conditions: endpoint: median survival time, higher = longer survival
Summary of the method: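 Survival ratio, drug arm over vehicle arm, in mice with a transplanted tumour.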

[1] = dose: 12.5 mg/kg/injection, schedule: Q04DX003 (ip), vehicle: water
[2] = dose: 200.0 mg/kg/injection, schedule: Q04DX003 (ip), vehicle: saline with Tween-80
[3] = dose: 400.0 mg/kg/injection, schedule: Q04DX003 (ip), vehicle: saline with Tween-80

SMILES: NOCc1ccc(CON)cc1
- T/C (dose: 50.0 mg/kg/injection, schedule: Q04DX003 (ip), vehicle: saline): 87 % of control
- T/C (dose: 100.0 mg/kg/injection, schedule: Q04DX003 (ip), vehicle: saline): 91 % of control
- T/C (dose: 200.0 mg/kg/injection, schedule: Q04DX003 (ip), vehicle: saline): 95 % of control

SMILES: c1ccc(Cn2ccnc2C2OCCO2)cc1
- T/C (dose: 6.25 mg/kg/injection, schedule: Q01DX009 (ip), vehicle: water): 95 % of control
- T/C (dose: 12.5 mg/kg/injection, schedule: Q01DX009 (ip), vehicle: water): 88 % of control
- T/C [1]: 104 % of control
- T/C (dose: 25.0 mg/kg/injection, schedule: Q04DX003 (ip), vehicle: water): 101 % of control
- T/C (dose: 50.0 mg/kg/injection, schedule: Q01DX009 (ip), vehicle: water): 112 % of control
- T/C (dose: 50.0 mg/kg/injection, schedule: Q04DX003 (ip), vehicle: water): 107 % of control
- T/C (dose: 100.0 mg/kg/injection, schedule: Q01DX009 (ip), vehicle: water): 93 % of control
- T/C (dose: 100.0 mg/kg/injection, schedule: Q04DX003 (ip), vehicle: water): 92 % of control
- T/C (dose: 200.0 mg/kg/injection, schedule: Q01DX009 (ip), vehicle: water): 87 % of control

SMILES: CC(=O)Nc1c(Cl)cc2c(c1Cl)Cc1cc([N+](=O)[O-])ccc1-2
- T/C (dose: 100.0 mg/kg/injection, schedule: Q01DX009 (ip), vehicle: saline with Tween-80): 95 % of control
- T/C (dose: 100.0 mg/kg/injection, schedule: Q04DX003 (ip), vehicle: saline with Tween-80): 92 % of control and 95 % of control
- T/C (dose: 200.0 mg/kg/injection, schedule: Q01DX009 (ip), vehicle: saline with Tween-80): 95 % of control
- T/C [2]: 92 % of control and 95 % of control
- T/C (dose: 400.0 mg/kg/injection, schedule: Q01DX009 (ip), vehicle: saline with Tween-80): 100 % of control
- T/C [3]: 91 % of control

SMILES: Nc1cc(N)cc(Cc2ccccc2)c1
- T/C (dose: 50.0 mg/kg/injection, schedule: Q01DX009 (ip), vehicle: Klucel (hydroxypropylcellulose) (HPC)): 112 % of control
- T/C (dose: 100.0 mg/kg/injection, schedule: Q01DX009 (ip), vehicle: Klucel (hydroxypropylcellulose) (HPC)): 116 % of control
- T/C (dose: 200.0 mg/kg/injection, schedule: Q01DX009 (ip), vehicle: Klucel (hydroxypropylcellulose) (HPC)): 116 % of control

SMILES: CCCCN(C)N=Nc1ccc(CCC(=O)OCC)cc1
- T/C (dose: 78.0 mg/kg/injection, schedule: Q04DX003 (ip), vehicle: saline with Tween-80): 100 % of control
- T/C (dose: 118.0 mg/kg/injection, schedule: Q04DX003 (ip), vehicle: saline with Tween-80): 118 % of control
- T/C (dose: 177.0 mg/kg/injection, schedule: Q04DX003 (ip), vehicle: saline with Tween-80): 104 % of control
- T/C [2]: 118 % of control
- T/C [3]: 150 % of control and 168 % of control
- T/C (dose: 600.0 mg/kg/injection, schedule: Q04DX003 (ip), vehicle: saline with Tween-80): 184 % of control

SMILES: COC1C(=[N+]=[N-])C(=O)NC(=O)N1C (stereo not drawn)
- T/C [1]: 120 % of control

SMILES: O=C(O)c1ccc(N2C(=O)C=CC2=O)cc1 (tested in a mixture with another compound)
- T/C (dose: 0.39 mg/kg/injection, schedule: Q01DX009 (ip), vehicle: Klucel (hydroxypropylcellulose) (HPC)): 95 % of control
- T/C (dose: 0.78 mg/kg/injection, schedule: Q01DX009 (ip), vehicle: Klucel (hydroxypropylcellulose) (HPC)): 108 % of control
- T/C (dose: 1.25 mg/kg/injection, schedule: Q01DX001 (ip), vehicle: Klucel (hydroxypropylcellulose) (HPC)): 100 % of control
- T/C (dose: 1.56 mg/kg/injection, schedule: Q01DX009 (ip), vehicle: Klucel (hydroxypropylcellulose) (HPC)): 95 % of control
- T/C (dose: 2.5 mg/kg/injection, schedule: Q01DX001 (ip), vehicle: Klucel (hydroxypropylcellulose) (HPC)): 104 % of control
- T/C (dose: 3.12 mg/kg/injection, schedule: Q01DX009 (ip), vehicle: Klucel (hydroxypropylcellulose) (HPC)): 110 % of control
- T/C (dose: 4.6 mg/kg/injection, schedule: Q04DX003 (ip), vehicle: Klucel (hydroxypropylcellulose) (HPC)): 95 % of control
- T/C (dose: 5.0 mg/kg/injection, schedule: Q01DX001 (ip), vehicle: Klucel (hydroxypropylcellulose) (HPC)): 104 % of control
- T/C (dose: 7.0 mg/kg/injection, schedule: Q04DX003 (ip), vehicle: Klucel (hydroxypropylcellulose) (HPC)): 95 % of control
- T/C (dose: 10.0 mg/kg/injection, schedule: Q04DX003 (ip), vehicle: Klucel (hydroxypropylcellulose) (HPC)): 100 % of control
